According to US20220257710A1, “ANTI-INFECTION EFFECTS OF HNRNPA2B1 AND USE THEREOF” (INSTITUTE OF BASIC MEDICAL SCIENCES, CHINESE ACADEMY OF …, priority 2019, published 2022):

Tested on: HSV-1 DNA
Test: Immunoprecipitation of nuclear protein with anti-hnRNPA2B1 antibody and PCR detection of HSV-1 DNA
Format: binding, HSV-1 (strain F)
Settings: mouse primary peritoneal macrophages, 2 hours after HSV-1 infection, PCR
Method: Obtaining the primary peritoneal macrophages of mice: C57BL/6 mice (6-8 weeks old, female, Shanghai Bikai Experimental Animal Co., Ltd.) were intraperitoneally injected with 2 ml of 3% mercaptoacetate (Sigma Aldrich) solution once. Three days later, the mice were sacrificed by cervical dislocation, and the abdominal cavity was washed with serum-free medium, sucked out and centrifuged to obtain cells.
The primary peritoneal macrophage cells were cultured in DMEM medium. After HSV-1 (strain F, ATCC) infection for 2 hours, nuclear protein was isolated and immunoprecipitated by anti-hnRNPA2B1 antibody (Santa Cruz) or control antibody (IgG, Santa Cruz). HSV-1 DNA was detected by PCR.

hnRNPA2B1: heterogeneous nuclear ribonucleoprotein A2B1; endogenous nuclear protein of mouse macrophages precipitated by anti-hnRNPA2B1 antibody
binding of hnRNPA2B1 to HSV-1 DNA: bound
